According to patent US20260085076A1, “CRYSTAL FORM OF AROMATIC HETEROCYCLIC COMPOUND, COMPOSITION THEREOF, PRODUCTION METHOD THEREOF AND USES THEREOF” (Hangzhou Yuhong Pharmaceutical Technology Co., Ltd., priority 2023, published 2026):

Legend:
SRBC mouse model = assay: SRBC-induced delayed-type hypersensitivity (DTH) in mice; format: in vivo, Balb/c mice; conditions: 100 mg/kg gavage once a day, day 0 to day 6, FIG. 76
Procedure: Drug formulation: The compound was added to 0.5% CMC-Na solution to formulate a drug suspension (dosage is 10 mg/mL).
Induction and administration of delayed-type hypersensitivity (DTH): 30 male Balb/c mice were weighed and randomly divided into 6 groups according to body weight, with 5 mice in each group. The experimental period lasted for 7 days. On day 0, mice were sensitized by subcutaneous injection of sheep red blood cells (SRBC). The mice were performed gavage administration at 100 mg/kg (once a day) from day 0 to day 6. On day 6, the mice were injected SRBC into the right hind foot pad for challenge. Measurements were taken on the 7th day of the experiment, and the experiment was concluded.
Pharmacodynamic detection indicators of disease models: the detection and observation indicators are the redness and swelling degree and thickness of the paw pads of SRBC-induced mice. The thickness of the right paw was measured on day 6 before the SRBC injection challenge as the baseline. The thickness of the right paw was measured again at the end of the experiment, the difference in paw thickness before and after the second injection was calculated.
Statistical analysis: The experimental data were expressed as mean±standard deviation (Mean±SD). All data were statistically analyzed using T-test, with P<0.05 considered statistically significant.

[1] = tested on: DSS-induced inflammatory bowel disease model in mice; assay: DSS-induced mouse inflammatory bowel disease model; format: in vivo, C57BL/6 mice; conditions: 50 mg/kg once a day, 5% DSS, day 8, compared with model group, FIG. 78
Procedure: Experimental purpose: To test the immunosuppressive activity of YZ001052 in DSS-induced inflammatory bowel disease model in mice. PF-06651600 was used as a positive control compound.
50 g of DSS was added 1000 mL of sterile water to formulate a 5% DSS solution, and the solution was filtered with a 0.22 μm filter membrane. Starting from day 0, the blank group was gave drinking water without DSS, and the other experimental groups were gave drinking water containing 5% DSS. All mice were sacrificed on day 8. After the experiment, the colon was collected, photographed and measured for length. The data were analyzed according to Statistics.

[2] = tested on: p-STAT5 under IL-15 stimulation in PBMC (JAK-STAT pathway); assay: p-STAT5 ELISA in IL-15 stimulated hPBMC cells; format: cell-based, human; conditions: Homo sapiens, PBMC, 45 min compound, 30 min IL-15, ELISA
Procedure: Based on the mechanism of JAK-STAT pathway, the effect of the compounds on the JAK-STAT pathway were evaluated by using cytokine IL-15 to stimulate hPBMC cells, and using the downstream STAT5 phosphorylation level as the detection index.
1. PBMC cell counting plate: 90 μL PBMC was seeded in a 96-well plate (PBMC cell density 80,000/well).
2. Treatment with test compounds: After cells being seeded, drug treatment was carried out immediately. The drugs to be tested at 5 μL/well (final concentrations 1, 0.5, 0.1, 0.05, 0.01, and 0.005 μM) were incubated at 37° C. for 45 min.
3. Cytokine IL-15 stimulation: The cells were stimulated by 5 μL IL-15, and incubated at 37° C. for 30 min.
4. Protein sample collection: The cells were collected in a centrifuge tube and centrifuged for 5 minutes. The supernatant was discarded and cells were lysed with 1× Cell Extraction Buffer PTR.
5. p-STAT5 detection: Perform detection according to the requirements of the ELISA kit.
Experimental results: IC50 values of compounds on p-STAT5 under IL-15 stimulation in PBMC

[3] = tested on: mouse model of acute radiation-induced lung injury; assay: Acute radiation-induced lung injury in mice; format: in vivo, C57BL/6 mice; conditions: 30 mg/kg q.d., 22.5 Gy whole lung, three weeks after modeling
Procedure: Eighteen female C57BL/6 mice were divided randomly into three groups: blank control group, simple irradiation group, and irradiation+ drug YZ001052 (30 mg/kg q. d) intervention group, with 6 mice in each group.
The mice were anesthetized with 1% sodium pentobarbital by intraperitoneal injection, and irradiated the whole lung with 22.5 Gy in a single shot using 220 KV X-rays through the Small Animal Precision Radiotherapy Research Platform (SARRP). After irradiation, the mice were housed in a normal manner.
Three weeks after modeling, the mice were anesthetized and dissected. The lung tissues were exposed and the left lung was ligated, an open tracheotomy was performed, the lung was lavaged with cold PBS, and the alveolar lavage fluid (BALF) was collected and centrifuged at 4° C.
The supernatant was collected to detect the content of inflammatory factor TNF-α by ELISA.
Resuspend the bronchoalveolar lavage fluid cell pellet in 200 μL PBS for white blood cell (WBC) counting.

JAK3 kinase = target: T1, JAK3 kinase (Homo sapiens, UniProt P52333); assay: Mobility shift assay, JAK3 kinase inhibitory activity; format: biochemical; conditions: Caliper EZ Reader
T1 sequence (P52333 1-1124): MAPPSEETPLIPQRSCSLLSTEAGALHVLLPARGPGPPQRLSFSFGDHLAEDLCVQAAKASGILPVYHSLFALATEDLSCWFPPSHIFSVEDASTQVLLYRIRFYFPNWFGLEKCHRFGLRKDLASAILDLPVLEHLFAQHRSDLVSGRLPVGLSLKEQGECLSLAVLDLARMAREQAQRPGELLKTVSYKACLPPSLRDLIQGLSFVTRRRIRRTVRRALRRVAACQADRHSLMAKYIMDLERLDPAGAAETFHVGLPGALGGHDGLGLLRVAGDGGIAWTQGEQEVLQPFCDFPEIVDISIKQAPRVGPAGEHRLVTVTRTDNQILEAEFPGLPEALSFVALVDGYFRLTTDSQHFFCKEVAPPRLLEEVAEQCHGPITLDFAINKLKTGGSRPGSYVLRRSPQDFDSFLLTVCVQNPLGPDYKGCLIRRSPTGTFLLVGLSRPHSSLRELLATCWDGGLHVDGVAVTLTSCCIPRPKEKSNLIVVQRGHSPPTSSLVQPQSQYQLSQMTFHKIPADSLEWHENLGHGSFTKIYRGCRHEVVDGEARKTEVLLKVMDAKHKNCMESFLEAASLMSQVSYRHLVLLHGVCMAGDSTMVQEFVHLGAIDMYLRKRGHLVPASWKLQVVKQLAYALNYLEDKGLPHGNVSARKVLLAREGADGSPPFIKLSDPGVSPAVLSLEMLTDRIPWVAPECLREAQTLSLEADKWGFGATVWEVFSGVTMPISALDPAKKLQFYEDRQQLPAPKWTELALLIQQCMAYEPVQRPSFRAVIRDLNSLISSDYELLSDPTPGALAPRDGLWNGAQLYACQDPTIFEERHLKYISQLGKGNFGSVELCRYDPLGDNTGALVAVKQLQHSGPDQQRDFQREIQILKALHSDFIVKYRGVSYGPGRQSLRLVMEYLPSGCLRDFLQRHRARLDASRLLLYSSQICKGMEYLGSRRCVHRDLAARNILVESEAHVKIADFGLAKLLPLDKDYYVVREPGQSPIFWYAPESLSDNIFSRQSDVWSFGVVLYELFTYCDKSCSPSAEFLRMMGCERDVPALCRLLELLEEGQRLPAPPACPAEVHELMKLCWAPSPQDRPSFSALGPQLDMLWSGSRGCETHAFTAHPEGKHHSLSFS
Procedure: Mobility shift assay was used to detect the in vitro inhibitory activity of the test compounds (listed below) on JAK3 kinase activity. Cerdulatinib (supplier: selleckchem; Article number: S7634) was used as a positive control compound.
Compound was dissolved in 100% DMSO to formulate a 10 mM stock solution and stored in a −20° C. refrigerator away from light.
(1) 1×Kinase buffer was prepared.
After being gradient dilution to a 100-fold final concentration, 250 nL of solutions were transferred to a 384-well plate using Echo550. 250 nL of 100% DMSO were added to each of the negative control wells and the positive control wells, respectively.
(3) 2.5 times a final concentration of kinase solution was prepared with 1×Kinase buffer. […]
(10) The conversion rate was read by Caliper EZ Reader.
Wherein: Conversion %_sample is the conversion rate reading of the sample; Conversion %_min: the mean value of the negative control wells, representing the conversion rate reading of the wells without enzyme activity; Conversion %_max: the mean value of the positive control wells, representing the conversion rate reading of the wells without compound inhibition; % Inhibition represents the percentage inhibition rate. […]

[4] = tested on: collagen-induced arthritis model in mice; assay: Collagen-induced arthritis model in mice (mCIA); format: in vivo, DBA/1J mice; conditions: 50 mg/kg once a day, FIG. 77
Procedure: 1. Construction of collagen-induced arthritis model in mice (mCIA) Experimental purpose: To test the immunosuppressive activity of YZ001052 in the mCIA model. PF-06651600 was used as a positive control compound.
Complete and incomplete Freund's adjuvants with chicken type II collagen solution were mixed in equal proportions to form emulsions. Except for the blank control group, a mixture of complete Freund's adjuvant and chicken type II collagen solution was injected subcutaneously into the base of the tail and thigh of mice on Day 0. Each mouse was injected subcutaneously with 100 μL at the base of the tail, and injected 50 μL subcutaneously at the base of both thighs (primary immunization). On day 21, mice were injected subcutaneously with 200 μL of a mixture of incomplete Freund's adjuvant and chicken type II collagen as a booster injection (second immunization). Arthritis was considered to occur if the clinical score of at least one limb was >2 points. Paw thickness measurement: Using a vernier caliper to measure the thickness of the left and right hind feet of the mouse and record it, which is the degree of paw swelling. The detection frequency was once every 3 days.

## C=CC(=O)N1CCc2c(c(-c3ccnc4[nH]ccc34)nn2C)C1 [YZ001052, 1-(1-methyl-3-(1H-pyrrolo[2,3-b]pyridin-4-yl)-1,4,6,7-tetrahydro-5H-pyrazolo[4,3-c]pyridin-5-yl)prop-2-en-1-one]
SRBC mouse model
  immunosuppressive effect on SRBC-induced delayed-type hypersensitivity (right paw thickness): significant immunosuppressive effects
[1]
  colorectal length: significantly increased
[2]
  IC50: 10.7 nM
[3]; FIG. 79
  TNF-α level in bronchoalveolar lavage fluid: good inhibitory effect
[3]; FIG. 80
  number of inflammatory cell infiltration in the lungs (white blood cells in BALF): significantly reduce
JAK3 kinase
  IC50: 0.25 nM
[4]; CIA mice
  paw swelling: improved to varying degrees
[4]; compared with the model group
  arthritis score: significantly decreased
